Measurements: US10772890B2, “Use of myeloperoxidase (MPO) inhibitors or pharmaceutically acceptable salts thereof to treat multiple system atrophy (MSA) 938” (ASTRAZENECA AB, priority 2007, dated 2020)

Legend:
Format in all cases: in vivo
MSA mice (tg+3NP) [1] = test: Motor clinical scale evaluation in MSA mouse model; conditions: p.o. twice daily, compared to vehicle treated mice, FIG. 1
From the text: A novel mouse model of MSA has been developed by inducing oxidative stress in transgenic mice with oligodendroglial α-synuclein expression (described herein). This model reproduces the cardinal neuropathological features of the disease including striatonigral degeneration (SND), olivopontocerebellar atrophy (OPCA), astrogliosis and microgliosis combined with oligodendroglial insoluble α-synuclein inclusions. Mitochondrial inhibition by 3NP in the presence of glial cytoplasmic inclusions in transgenic mice induces a selective neuronal cell death pattern typical for MSA in these animals (Stefanova N. et al. Am. J. Pathol. 2005; 166:869-76).
Thus, in the present invention, MPO inhibitors have been use to suppress MPO activity in an MSA mouse model consisting of an oligodendroglial α-SYN overexpression in transgenic mice exposed to mitochondrial inhibition by 3-nitropropionic acid (3NP). The effects were followed by application of established immunohistological and behavioral methods to evaluate the participation of MPO in the pathogenesis of MSA and the possible neuroprotective effects of in an MSA model.
A total of 30 (PLP)-α-synuclein transgenic mice were used. Animals were housed at 12/12 hours dark/light cycle with free access to food and water in the animal facility of the Innsbruck Medical University. […]

MSA mice (tg+3NP) [2] = test: Open field activity (Flex Field Activity System) in MSA mouse model; conditions: high dose 180 μmol/kg p.o. twice daily, FIG. 2
Experimental: (§1) A total of 30 (PLP)-α-synuclein transgenic mice were used. Animals were housed at 12/12 hours dark/light cycle with free access to food and water in the animal facility of the Innsbruck Medical University. All experiments were performed in accordance with the Austrian law and after permission for animal experiments of the Federal Ministry for Education, Science, and Culture of Austria.
(§2) Low dose group (n=10) MSA mice (tg+3NP) treated with 1-(2-Isopropoxyethyl)-2-thioxo-1,2,3,5-tetrahydro-pyrrolo[3,2-d]pyrimidin-4-one (Compound I; prepared by AstraZeneca), 2×6 μmol/kg p.o.
(§3) High dose group (n=10) MSA mice (tg+3NP) treated with Compound I (prepared by AstraZeneca), 2×180 μmol/kg, p.o.
1-(2-Isopropoxyethyl)-2-thioxo-1,2,3,5-tetrahydro-pyrrolo[3,2-d]pyrimidin-4-one (Compound I treatment) was started one week prior to the first 3NP intoxication and stopped three weeks after the first 3NP intoxication (see 3NP intoxication protocol below). Animals underwent behavioral tests during week 3-4 after the beginning of the experiment. On day 28 animals were perfused under deep thiopental anesthesia and the brains were collected for histopathological analysis of neuronal loss and gliosis. […]

MSA mice (tg+3NP) [3] = test: Stride length test in MSA mouse model; conditions: high dose 180 μmol/kg p.o. twice daily, FIG. 3
Experimental: as §1, §2, §3
(§4) 1-(2-Isopropoxyethyl)-2-thioxo-1,2,3,5-tetrahydro-pyrrolo[3,2-d]pyrimidin-4-one (Compound I treatment) was started one week prior to the first 3NP intoxication and stopped three weeks after the first 3NP intoxication (see 3NP intoxication protocol below). […]
The stride length of the forelimbs and hindlimbs of the mice was measured after a habituation to the test for 3 days before its performance according to Fernagut et al. (Fernagut P O. et al. Neuroscience. 2002; 114:1005-17) with slight modification. […] After three runs, the stride length of the hindlimbs on each side was measured, excluding the beginning (7 cm) and the end (7 cm) of the run. The mean stride length for each limb was determined.

MSA mice (tg+3NP) [4] = test: Neuropathology: immunohistochemistry and stereological neuron counts in MSA mouse model
Experimental: as §1, §2, §3
1-(2-Isopropoxyethyl)-2-thioxo-1,2,3,5-tetrahydro-pyrrolo[3,2-d]pyrimidin-4-one (Compound I treatment) was started one week prior to the first 3NP intoxication and stopped three weeks after the first 3NP intoxication (see 3NP intoxication protocol below). Animals underwent behavioral tests during week 3-4 after the beginning of the experiment. On day 28 animals were perfused under deep thiopental anesthesia and the brains were collected for histopathological analysis of neuronal loss and gliosis.
Mice were intoxicated chronically with 3NP with slowly increasing doses of toxin according to a previously used scheme (i.e. 4×10 mg/kg, 4×20 mg/kg, 4×40 mg/kg, 4×50 mg/kg intraperitoneal injections every 12th hour for a period of 8 days) to model MSA (Stefanova N. et al. Am. J. Pathol. 2005; 166:869-76)
The drug and vehicle (0.1 mol/L meglumine with 20% w/v hydroxypropyl-β-cyclodextrin, pH 10.8) were stored at 4° C. […]
(§5) Stereology was applied using a computer-assisted image analysis system (Nikon E-800 microscope, CCD video camera, Optronics MicroFire, Goleta, USA; Stereo Investigator Software, MicroBrightField Europe e.K., Magdeburg, Germany). […] Purkinje cells were counted in a region outlined to include only the Purkinje cell layer as previously reported (German D C. et al. Neuroscience. 2001; 105:999-1005). All data were expressed as mean value±SEM. […]

MSA mice (tg+3NP) [5] = test: Microglial activation (optical density) in substantia nigra and striatum of MSA mice; conditions: high dose 180 μmol/kg p.o. twice daily, FIG. 6
Experimental: as §1, §2, §3, §4, §5

CC(C)OCCn1c(=S)[nH]c(=O)c2[nH]ccc21 [Compound I, 1-(2-Isopropoxyethyl)-2-thioxo-1,2,3,5-tetrahydro-pyrrolo[3,2-d]pyrimidin-4-one]
mean daily motor score (MSA mice (tg+3NP) [1]): significant improvement | flex field performance (rearing and open field activity) (MSA mice (tg+3NP) [2]): significant improvement | stride length test performance (left and right hindlimbs) (MSA mice (tg+3NP) [3]): significant improvement | striatonigral degeneration (TH immunopositive cells in substantia nigra, dopaminergic terminals in striatum, striatal DARPP-32 immunoreactive neurons) (MSA mice (tg+3NP) [4]; high dose 180 μmol/kg p.o. twice daily, FIG. 4): neuroprotective | olivopontocerebellar atrophy (inferior olivary complex, pontine nuclei, Purkinje cells in the cerebellum) (MSA mice (tg+3NP) [4]; high dose 180 μmol/kg p.o. twice daily, FIG. 5): neuroprotective | neuroprotection (neurons preserved in substantia nigra pars compacta, striatum, cerebellar cortex, pontine nuclei, inferior olivary complex) (MSA mice (tg+3NP) [4]; summary of findings, dose not stated): significant neuroprotection | microglial activation in substantia nigra and striatum (MSA mice (tg+3NP) [5]): suppression of microglial activation
